# Laboratory results taken from patent US8952024B2, “Herbicidal pyrimidone derivatives” (E I du Pont de Nemours and Company, priority 2009, dated 2015).
# Legend:
# Experiment in all cases: Test D pre-/postemergence plant response
# Assay type in all cases: in vivo
# [1] = system: sandbur (southern sandbur, Cenchrus echinatus)
# Excerpt: (§1) Seeds of plant species selected from bermudagrass (Cynodon dactylon), Surinam grass (Brachiaria decumbens), large crabgrass (Digitaria sanguinalis), green foxtail (Setaria viridis), goosegrass (Eleusine indica), johnsongrass (Sorghum halepense), kochia (Kochia scoparia), morningglory (pitted morningglory, Ipomoea lacunosa), nutsedge (purple nutsedge, Cyperus rotundus), ragweed (common ragweed, Ambrosia elatior), black mustard (Brassica nigra), guineagrass (Panicum maximum), dallisgrass (Paspalum dilatatum), barnyardgrass (Echinochloa crus-galli), sandbur (southern sandbur, Cenchrus echinatus), sowthistle (common sowthistle, Sonchus oleraceous), prickly sida (Sida spinosa), Italian ryegrass (Lolium multiflorum), purslane (common purslane, Portulaca oleracea), signalgrass (broadleaf signalgrass, Brachiaria platyphylla), groundsel (common groundsel, Senecio vulgaris), chickweed (common chickweed, Stellaria media), dayflower (Virginia (VA) dayflower, Commelina virginica), bluegrass (annual bluegrass, Poa annua), naked crabgrass (Digitaria nuda), itchgrass (Rottboellia cochinchinensis), quackgrass (Elytrigia repens), field bindweed (Convolvulus arvensis), spanishneedles (Bidens bipinnata), mallow (common mallow, Malva sylvestris) and Russian thistle (Salsola kali), were planted into a blend of loam soil and sand and treated preemergence with test chemicals formulated in a non-phytotoxic solvent mixture which included a surfactant. At the same time, plants from these weed species were treated with postemergence applications of the test chemicals formulated in the same manner. Plants ranged in height from 2 to 18 cm (1- to 4-leaf stage) for postemergence treatments.
# (§2) Treated plants and controls were maintained in a greenhouse for 14 to 21 days, after which time all species were visually evaluated and compared to controls. Plant response ratings, summarized in Table D, are based on a scale of 0 to 100 where 0 is no effect and 100 is complete control. A dash (-) response means no test result.
# [2] = system: black mustard (Brassica nigra)
# Excerpt: as §1, §2
# [3] = system: goosegrass (Eleusine indica)
# Excerpt: as §1, §2
# [4] = system: bermudagrass (Cynodon dactylon)
# Excerpt: as §1, §2
# [5] = system: field bindweed (Convolvulus arvensis)
# Excerpt: as §1, §2
# [6] = system: prickly sida (Sida spinosa)
# Excerpt: as §1, §2
# [7] = system: dallisgrass (Paspalum dilatatum)
# Excerpt: as §1, §2
# [8] = system: sowthistle (common sowthistle, Sonchus oleraceous)
# Excerpt: as §1, §2
# [9] = system: Italian ryegrass (Lolium multiflorum)
# Excerpt: as §1, §2
# [10] = Postemergence, 31 g ai/ha, scale 0 to 100
# [11] = Postemergence, 62 g ai/ha, scale 0 to 100 (0 no effect, 100 complete control)
# [12] = Postemergence, 125 g ai/ha, scale 0 to 100 (0 no effect, 100 complete control)
# [13] = Postemergence, 16 g ai/ha, scale 0 to 100
# [14] = Preemergence, 16 g ai/ha, scale 0 to 100, 0 no effect, 100 complete control
# [15] = Preemergence, 31 g ai/ha, scale 0 to 100 (0 no effect, 100 complete control)
# [16] = Preemergence, 125 g ai/ha, scale 0 to 100
# [17] = Postemergence, 31 g ai/ha, scale 0 to 100 (0 no effect, 100 complete control)
# [18] = Preemergence, 62 g ai/ha, scale 0 to 100
smiles,measurement,setting,value
COCCn1c(-c2ccccc2)ncc(C(=O)C2=C(O)CCCC2=O)c1=O [Compound 85],"Plant response rating, Sandbur",[1]; [10],50
same,"Plant response rating, Sandbur",[1]; [11],65
same,"Plant response rating, Sandbur",[1]; [12],95
same,"Plant response rating, Sandbur",[1]; [13],10
same,"Plant response rating, Sandbur",[1]; [14],5
same,"Plant response rating, Sandbur",[1]; [15],5
same,"Plant response rating, Sandbur",[1]; [16],98
same,"Plant response rating, Black Mustard",[2]; [17],60
same,"Plant response rating, Black Mustard",[2]; [11],75
same,"Plant response rating, Black Mustard",[2]; [12],85
same,"Plant response rating, Black Mustard",[2]; [13],35
same,"Plant response rating, Black Mustard",[2]; [14],50
same,"Plant response rating, Black Mustard",[2]; [15],60
same,"Plant response rating, Black Mustard",[2]; [18],98
same,"Plant response rating, Black Mustard",[2]; [16],100
same,"Plant response rating, Goosegrass",[3]; [10],65
same,"Plant response rating, Goosegrass",[3]; [11],75
same,"Plant response rating, Goosegrass",[3]; [12],75
same,"Plant response rating, Goosegrass",[3]; [13],40
same,"Plant response rating, Goosegrass",[3]; [14],65
same,"Plant response rating, Goosegrass",[3]; [15],75
same,"Plant response rating, Goosegrass",[3]; [18],75
same,"Plant response rating, Goosegrass",[3]; [16],98
same,"Plant response rating, Bermudagrass",[4]; [17],75
same,"Plant response rating, Bermudagrass",[4]; [11],80
same,"Plant response rating, Bermudagrass",[4]; [12],90
same,"Plant response rating, Bermudagrass",[4]; [13],65
same,"Plant response rating, Bermudagrass",[4]; [14],80
same,"Plant response rating, Bermudagrass",[4]; [15],100
same,"Plant response rating, Bermudagrass",[4]; [18],100
same,"Plant response rating, Bermudagrass",[4]; [16],100
same,"Plant response rating, Field Bindweed",[5]; [10],75
same,"Plant response rating, Field Bindweed",[5]; [11],75
same,"Plant response rating, Field Bindweed",[5]; [12],75
same,"Plant response rating, Field Bindweed",[5]; [13],65
same,"Plant response rating, Field Bindweed",[5]; [14],50
same,"Plant response rating, Field Bindweed",[5]; [15],70
same,"Plant response rating, Field Bindweed",[5]; [18],70
same,"Plant response rating, Field Bindweed",[5]; [16],98
same,"Plant response rating, Prickly Sida",[6]; [10],95
same,"Plant response rating, Prickly Sida",[6]; [11],95
same,"Plant response rating, Prickly Sida",[6]; [12],98
same,"Plant response rating, Prickly Sida",[6]; [14],90
same,"Plant response rating, Prickly Sida",[6]; [15],100
same,"Plant response rating, Prickly Sida",[6]; [18],100
same,"Plant response rating, Prickly Sida",[6]; [16],100
same,"Plant response rating, Dallisgrass",[7]; [10],25
same,"Plant response rating, Dallisgrass",[7]; [11],65
same,"Plant response rating, Dallisgrass",[7]; [12],80
same,"Plant response rating, Dallisgrass",[7]; [13],15
same,"Plant response rating, Dallisgrass",[7]; [14],50
same,"Plant response rating, Dallisgrass",[7]; [15],80
same,"Plant response rating, Dallisgrass",[7]; [18],95
same,"Plant response rating, Dallisgrass",[7]; [16],98
same,"Plant response rating, Sowthistle",[8]; [10],100
same,"Plant response rating, Sowthistle",[8]; [11],100
same,"Plant response rating, Sowthistle",[8]; [12],100
same,"Plant response rating, Sowthistle",[8]; [13],100
same,"Plant response rating, Sowthistle",[8]; [14],100
same,"Plant response rating, Sowthistle",[8]; [15],100
same,"Plant response rating, Sowthistle",[8]; [16],100
same,"Plant response rating, Ryegrass, Italian",[9]; [10],0
same,"Plant response rating, Ryegrass, Italian",[9]; [11],15
same,"Plant response rating, Ryegrass, Italian",[9]; [12],20
same,"Plant response rating, Ryegrass, Italian",[9]; [13],0
same,"Plant response rating, Ryegrass, Italian",[9]; [14],0
same,"Plant response rating, Ryegrass, Italian",[9]; [15],0
same,"Plant response rating, Ryegrass, Italian",[9]; [16],20
COCCn1c(-c2cccc(C)c2)ncc(C(=O)C2=C(O)C3CCC(C3)C2=O)c1=O (stereo not shown) [Compound 233],"Plant response rating, Sandbur",[1]; [10],65
same,"Plant response rating, Sandbur",[1]; [11],70
same,"Plant response rating, Sandbur",[1]; [12],75
same,"Plant response rating, Sandbur",[1]; [13],30
same,"Plant response rating, Sandbur",[1]; [14],0
same,"Plant response rating, Sandbur",[1]; [15],0
same,"Plant response rating, Sandbur",[1]; [16],85
same,"Plant response rating, Black Mustard",[2]; [17],50
same,"Plant response rating, Black Mustard",[2]; [11],50
same,"Plant response rating, Black Mustard",[2]; [12],100
same,"Plant response rating, Black Mustard",[2]; [13],20
same,"Plant response rating, Black Mustard",[2]; [14],0
same,"Plant response rating, Black Mustard",[2]; [15],0
same,"Plant response rating, Black Mustard",[2]; [18],20
same,"Plant response rating, Black Mustard",[2]; [16],65
same,"Plant response rating, Goosegrass",[3]; [10],50
same,"Plant response rating, Goosegrass",[3]; [11],60
same,"Plant response rating, Goosegrass",[3]; [12],65
same,"Plant response rating, Goosegrass",[3]; [13],40
same,"Plant response rating, Goosegrass",[3]; [14],70
same,"Plant response rating, Goosegrass",[3]; [15],95
same,"Plant response rating, Goosegrass",[3]; [18],98
same,"Plant response rating, Goosegrass",[3]; [16],100
same,"Plant response rating, Bermudagrass",[4]; [17],70
same,"Plant response rating, Bermudagrass",[4]; [11],70
same,"Plant response rating, Bermudagrass",[4]; [12],70
same,"Plant response rating, Bermudagrass",[4]; [13],70
same,"Plant response rating, Bermudagrass",[4]; [14],5
same,"Plant response rating, Bermudagrass",[4]; [15],5
same,"Plant response rating, Bermudagrass",[4]; [18],85
same,"Plant response rating, Bermudagrass",[4]; [16],85
same,"Plant response rating, Field Bindweed",[5]; [10],50
same,"Plant response rating, Field Bindweed",[5]; [11],50
same,"Plant response rating, Field Bindweed",[5]; [12],70
same,"Plant response rating, Field Bindweed",[5]; [13],10
same,"Plant response rating, Field Bindweed",[5]; [14],0
same,"Plant response rating, Field Bindweed",[5]; [15],0
same,"Plant response rating, Field Bindweed",[5]; [18],85
same,"Plant response rating, Field Bindweed",[5]; [16],85
same,"Plant response rating, Prickly Sida",[6]; [10],50
same,"Plant response rating, Prickly Sida",[6]; [11],50
same,"Plant response rating, Prickly Sida",[6]; [12],60
same,"Plant response rating, Prickly Sida",[6]; [13],30
same,"Plant response rating, Prickly Sida",[6]; [14],0
same,"Plant response rating, Prickly Sida",[6]; [15],0
same,"Plant response rating, Prickly Sida",[6]; [18],0
same,"Plant response rating, Prickly Sida",[6]; [16],70
same,"Plant response rating, Dallisgrass",[7]; [10],10
same,"Plant response rating, Dallisgrass",[7]; [11],10
same,"Plant response rating, Dallisgrass",[7]; [12],35
same,"Plant response rating, Dallisgrass",[7]; [13],0
same,"Plant response rating, Dallisgrass",[7]; [14],0
same,"Plant response rating, Dallisgrass",[7]; [15],0
same,"Plant response rating, Dallisgrass",[7]; [18],0
same,"Plant response rating, Dallisgrass",[7]; [16],35
same,"Plant response rating, Sowthistle",[8]; [10],100
same,"Plant response rating, Sowthistle",[8]; [12],100
same,"Plant response rating, Sowthistle",[8]; [13],90
same,"Plant response rating, Sowthistle",[8]; [14],0
same,"Plant response rating, Sowthistle",[8]; [15],50
same,"Plant response rating, Sowthistle",[8]; [16],100
same,"Plant response rating, Ryegrass, Italian",[9]; [10],0
same,"Plant response rating, Ryegrass, Italian",[9]; [11],5
same,"Plant response rating, Ryegrass, Italian",[9]; [12],5
same,"Plant response rating, Ryegrass, Italian",[9]; [13],0
same,"Plant response rating, Ryegrass, Italian",[9]; [14],0
same,"Plant response rating, Ryegrass, Italian",[9]; [15],0
same,"Plant response rating, Ryegrass, Italian",[9]; [16],20
